Reference: patent EP1481986A1, “Antibiotic 97518, pharmaceutically acceptable salts and compositions, and use thereof” (priority 2003, dated 2004)
≈ marks a conversion by molar mass, not a printed value.

Tests used:
[1] = system: Staphylococcus aureus strain ATCC6538P (L100); experiment: Macromolecular synthesis (incorporation of labelled precursors of DNA, RNA, protein and cell wall); type: cell-based; settings: 20 min at 37°C
Experimental: Staphylococcus aureus strain ATCC6538P (L100) was grown overnight at 37 °C in a rotary bath in Iso-Sensitest Broth (Oxoid Ltd., Basingstoke, Hampshire, England). The culture was diluted up to an OD540 = 0.03 in a 1:1 (v/v) mixture of Iso-Sensitest broth : Davis Mingioli Broth (Difco Labs, Detroit, USA) added with 1g/l of KH2PO4, and was incubated at 37°C. To determine the antibiotic dose/response effects on RNA, DNA, protein and cell wall biosyntheses, the culture was divided in four parts when the optical density reached 0.4. Individual precursors of DNA ([…] ^3H-thymidine + 0.1g/l unlabelled adenosine), RNA (5 mCi/l ^3H-uracil), protein (10 mCi/l ^3H-leucine), and cell wall (1 mCi/l ^3H-N-acetylglucosamine + 3.5 mg/l unlabelled N-acetylglucosamine) biosyntheses were then added, resptectively, to each one of the four aliquots and, immediately after the addition, 100 µl of the resulting culture was dispensed in wells of microtiter plate (96 wells format), containing 10 µl of solutions of antibiotic 97518. After 20 min of incubation at 37°C, 0.1 ml ice-cold 20% (w/v) trichloroacetic acid was added to stop the incorporation. After 30 minutes at 4°, the samples were filtered on Filtermat A (Wallac) using an 96 well Wallac Cell Harvester. The Radioactivity not incorporated was washed away sequentially with water and ethanol. The radioactivity of the biopolymers was counted on the filters, using a Beta Plate System (Wallac).

[2] = system: 1652 Enterococcus faecium cl.isol. Van A; experiment: Microbroth dilution MIC (NCCLS M7-A5); type: cell-based; design: unit not given here; settings: CAMHB, 10^4 CFU/ml, 35°C, 18-24 hours
Experimental: (§1) Antimicrobial activity of antibiotic 97518 was determined by using microbroth dilution method with standard U-bottom 96-well plates according to The National Committee for Clinical Laboratory Standards (Methods for Dilution Antimicrobial Susceptibility Tests for Bacteria that Grow Aerobically - Fifth Edition; Approved Standard. NCCLS document M7-A5 Vol.20 No. 2). The strains used were clinical isolates or strains from American Type Culture Collection (ATCC). Powder of antibiotic 97518 was dissolved in DMSO; this solution was further diluted with distilled water. The media used were cation-adjusted Mueller Hinton broth (CAMHB) for Staphylococcus aureus, Moraxella catarrhalis, Enterococci; Todd Hewitt broth (THB) for Streptococcus pyogenes, Streptococcus pneumoniae. Inocula were 10^4 CFU/ml. All strains were incubated at 35°C in air. Incubation time was 18-24 hours. […]

[3] = system: 997 Neisseria gonorrhoeae clin.is.; experiment: Microbroth dilution MIC (NCCLS M7-A5); type: cell-based; settings: 10^4 CFU/ml, 35°C, 18-24 hours
Experimental: as §1

[4] = in vivo
[5] = system: Streptococcus pyogenes C 203; experiment: Mouse septicemia protection test (ip infection, survival to day 7); type: in vivo, Female ICR mice; settings: mice infected ip with Streptococcus pyogenes C 203, Spearman-Kärber method
Experimental: Female ICR mice (Harlan, Italy) weighing 14-16 g were infected intraperitoneally (ip) with 6.5 x 10^2 cells of Streptococcus pyogenes C 203 in 0.5 mL of saline supplemented with 1% peptone. Antibiotic 97518 was administered intravenously (iv) or subcutaneously (sc) within 10-15 min after infection. The 50% effective doses (ED50) were calculated by the Spearman-Kärber method (D.J. Finney. The Spearman-Kärber method. In: Statistical Methods in Biological Assay. (1952) pp. 524-530, Charles Griffin &Co., Ltd., London) from the percentage of animals surviving to day 7 at each dose.

## C=C1NC(=O)[C@H](C(C)C)NC(=O)[C@H](NC(=O)/C(=C/C)NC(=O)[C@@H](N)[C@@H](C)CC)CSC[C@@H](C(=O)N[C@H]2C(=O)N3CCC[C@H]3C(=O)NCC(=O)N[C@H](C(=O)N[C@H](C(=O)N[C@@H]3CSC[C@@H]4NC(=O)CNC(=O)[C@@H](CSC[C@@H]5NC(=O)[C@H](Cc6c[nH]cn6)NC(=O)[C@@H](CSC[C@@H](C(=O)O)NC5=O)NC4=O)NC(=O)CNC(=O)CNC(=O)CNC(=O)[C@H](CCC(=O)O)NC3=O)[C@@H](C)O)CS[C@H]2C)NC(=O)[C@H](Cc2c[nH]c3ccccc23)NC1=O [Antibiotic 97518]
[1]; at 2.5 µg/ml (same concentrations)
  other macromolecular syntheses (DNA, RNA, protein): only partially inhibited
[1]; at 2.5 µg/ml
  cell wall synthesis (3H-N-acetylglucosamine incorporation): blocked cell wall synthesis completely
[2]
  MIC: 64
[3]
  MIC: 64 mg/mL (≈ 29.2 mM)
[4]
  not toxic up to (dose): up to 100 mg/Kg
[5]; administered intravenously (iv) within 10-15 min after infection
  ED50: 3.75 mg/kg
[5]; administered subcutaneously (sc) within 10-15 min after infection
  ED50: 3.75 mg/kg

## nisin [reference compound]
[1]; control experiments
  the four macromolecular syntheses (DNA, RNA, protein, cell wall): inhibited all the four macromolecular syntheses at the same concentration
